This assay concerns panel of experts in the sensory evaluation of foods and beverages. Kind of assay: Sensory evaluation of sweetness linger and taste characteristics by expert panel. It counts as in vivo. Further details: key: 0=no sweetness linger; 1=very slight sweetness linger; 2=slight sweetness linger; 3=moderate sweetness linger; 4=moderately high sweetness linger; 5=high sweetness linger.

Our source for the sweetness linger values is patent publication US9125429B2, “High-potency sweetener composition with fatty acid and compositions sweetened therewith” (THE COCA-COLA COMPANY, priority 2005, dated 2015).

Take rebaudioside A: the sweetness linger is, setting by setting: (Example Set G: 400 ppm REBA in citric acid/potassium citrate composition equivalent to diet lemon-lime beverage (sugar control 8 g in 100 ml citrate buffer), scale 0-5, sweetness 3-4 min after water rinse) 5; (Example Set H: REBA (500 ppm; H41 360 ppm) in carbon-treated water, phosphoric acid (75%) to pH 2.4-2.5 (sugar control 10 g in 100 ml), scale 0-5) 5.
